Assay results taken from patent publication US20240408082A1, “METHODS FOR TREATING CANCERS AND TUMORS” (BEYONDSPRING PHARMACEUTICALS, INC., priority 2021, published 2024).
pIC50: −log10 of the molar value. Values joined by “and” are separate entries in the source; they are usually repeats but may differ in a detail not shown here. Equal values may be shown once.

Experiments:
Format in all cases: cell-based
[1] = system: small cell lung cancer model LXFS 650; assay: 3D clonogenic assay, Example 2, LXFS 650
Experimental: (§1) The present study investigated plinabulin for anticancer activity ex vivo in 68 out of 71 originally planned patient-derived xenograft (PDX) models representing major cancer types. Experiments were performed using a 3D clonogenic assay in a 96-well format with colony count based on image analysis as a read-out. By using this assay, the investigational compound was assessed for the ability to inhibit anchorage independent growth and ex vivo colony formation of tumor cells in semi-solid medium.
(§2) A master stock solution of plinabulin was prepared by dissolving the compound in DMSO at a concentration of 9.9 mM. Working stock solutions were prepared by diluting the master stock solution with DMSO to a concentration of 0.99 mM (330-fold the highest test concentration). Small aliquots of the master and working stock were stored at −20° C. […]
(§3) Plinabulin was investigated in 68 PDX models representing a number of cancer types. […] The percentage of viable cells was determined in a Neubauer-hemocytometer using trypan blue exclusion. […]
(§4) The clonogenic assay was carried out in a 96 well plate format using ultra low attachment plates. […] Cultures were incubated at 37° C. and 7.5% CO2 in a humidified atmosphere 13 days in total and monitored closely for colony growth using an inverted microscope. […]

gastric cancer (Asian) = assay: 3D clonogenic assay, Example 2, gastric cancer (Asian); details: n=3 models
Experimental: as §1, §2, §3, §4

[2] = system: (Asian) gastric cancer model GXA 3067; assay: 3D clonogenic assay, Example 2, GXA 3067; details: read-out: abs. IC50
Experimental: as §1, §2, §3, §4

[3] = system: 68 PDX models of various histotypes; assay: 3D clonogenic assay, Example 2, all PDX models
Experimental: as §1
A master stock solution of plinabulin was prepared by dissolving the compound in DMSO at a concentration of 9.9 mM. Working stock solutions were prepared by diluting the master stock solution with DMSO to a concentration of 0.99 mM (330-fold the highest test concentration). Small aliquots of the master and working stock were stored at −20° C. On each day of an experiment, an aliquot of the working stock was used and stored at room temperature prior to and during treatment. All liquid handling steps were performed using a Tecan Freedom EVO 200 robotic platform. First, serial dilutions of the working stock solution were done in DMSO. The DMSO dilutions were then diluted 1:22 into the cell culture medium (IMDM, supplemented with 20% (v/v) fetal calf serum, and 50 μg/ml gentamicin) in an intermediate dilution plate. Finally, 10 μl taken from the intermediate dilution plate were transferred to 140 μl/well of the final assay plate. Thus, the DMSO working stock was diluted at 1:330, and the DMSO concentration in the assay was 0.3% v/v in all wells.
Plinabulin was investigated in 68 PDX models representing a number of cancer types. Tumors were passaged as subcutaneous xenografts in NMRI nu/nu mice. At a tumor volume of 400-1000 mm^3 tumor-bearing mice were euthanized and tumors were collected under sterile conditions without delay according to relevant SOPs and the relevant animal welfare guidelines published by the FELASA and the GV-SOLAS. Tumors were mechanically disaggregated and subsequently incubated with an enzyme cocktail consisting of collagenase type IV (41 U/ml), DNase I (125 U/ml), hyaluronidase type III (100 U/ml), and dispase II (1 U/ml) in RPMI 1640 medium (Life Technologies) at 37° C. for 60-120 minutes. Cells were passed through sieves of 100 μm and 40 μm mesh size (Cell Strainer, BD Falcon™), and washed with RPMI 1640 medium (Biochrom). The percentage of viable cells was determined in a Neubauer-hemocytometer using trypan blue exclusion. Aliquots of the cells were frozen down and stored in a liquid nitrogen vapor phase. On each day of an experiment, a frozen aliquot of tumor cells was thawed and used for the preparation of assay plates.
The clonogenic assay was carried out in a 96 well plate format using ultra low attachment plates. For each test, cells were prepared as described above (Section 6.6) and assay plates were prepared as follows: each test well contained a layer of semi-solid medium with tumor cells (50 μl), and a second layer of medium supernatant with or without test compound (100 μl). The cell layer consisted of 2.5-12.5·10^3 tumor cells per well, which were seeded on day 0 (d0) in 50 μl/well cell culture medium (IMDM, supplemented with 20% (v/v) fetal calf serum, 50 μg/ml gentamicin, and 0.4% (w/v) agar). After 24 h, the soft-agar layer was covered with 90 μl of the same culture medium without agar. Seven days after seeding 10 μl of test compound or control medium was added, and left on the cells for 24 h. Every 96 well plate included six DMSO-treated control wells and drug-treated wells in duplicate at 9 concentrations. After the incubation time of 24 h the supernatant (90 μl medium without agar +10 μl compound/control) was changed against drug free medium and incubated until the end of the study. Cultures were incubated at 37° C. and 7.5% CO2 in a humidified atmosphere 13 days in total and monitored closely for colony growth using an inverted microscope. […]

## CC(C)(C)c1[nH]cnc1/C=c1\[nH]c(=O)/c(=C/c2ccccc2)[nH]c1=O [plinabulin, (3Z,6Z)-3-Benzylidene-6-{[5-(2-methyl-2-propanyl)-1H-imidazol-4-yl]methylene}-2,5-piperazinedione]
[1]
  abs. IC70: 32 nM
[1]; read-out: abs. IC50
  pIC50: 7.66
Gastric cancer (Asian)
  geom. mean abs. IC70: 319 nM
Gastric cancer (Asian); read-out: geom. mean abs. IC50
  pIC50: 6.78
[2]
  pIC50: 7.59
[3]; 68 PDX models
  Sensitive Tumors, Number, Based on Abs. IC70: 9 out of 68 and 9/68
  Sensitive Tumors, Number, Based on Rel. IC70: 27/68
  Sensitive Tumors, Percentage, Based on Abs. IC50: 35%
  Sensitive Tumors, Percentage, Based on Abs. IC70: 13%
  Sensitive Tumors, Percentage, Based on Rel. IC50: 50%
  Sensitive Tumors, Percentage, Based on Rel. IC70: 40%
[3]; all 68 PDX models, treatment from day 7 to day 8
  geometric mean absolute IC70, tumor colony formation: 1780 nM
[3]; all 68 PDX models, treatment from day 7 to day 8, read-out: geometric mean absolute IC50, tumor colony formation
  pIC50: 6.22
[3]; geometric means
  Fold difference of IC50 of sensitive tumors vs. all tumors, Based on Abs. IC50: 10.7 fold
  Fold difference of IC50 of sensitive tumors vs. all tumors, Based on Rel. IC50: 3.4 fold
  Fold difference of IC70 of sensitive tumors vs. all tumors, Based on Abs. IC70: 27.1 fold
  Fold difference of IC70 of sensitive tumors vs. all tumors, Based on Rel. IC70: 4.6 fold
[3]; sigmoidal concentration-effect curves
  inhibition of tumor colony formation (in words): inhibited tumor colony formation in a concentration-dependent manner in almost all cell lines
